Article PMC4829348 (Journal of medicinal chemistry, 2016)

System: A/WSN/33 virus (M2-S31N)
Format: cell-based, influenza A virus
Conditions: not given

**Q.** With `c1c(CNC23CC4CC(CC(C4)C2)C3)noc1C1CCC1` [14d] as the compound, how does the “decrease of plaque number” value read?
**A.** more than 50%

**Q.** Which “decrease of plaque number” value does the source give for `c1c(CNC23CC4CC(CC(C4)C2)C3)noc1C1CC1` [14c] here?
**A.** more than 50%

Same assay, conditions: read-out: Plaque Reduction EC50

**Q.** With `OC12CC3CC(C1)CC(NCc1cc(-c4cccs4)on1)(C3)C2` [compound 30f] as the compound, how does the EC50 read?
**A.** < 1 µM

**Q.** Which EC50 does the source give for `OC1C2CC3CC1CC(NCc1cc(-c4cccs4)on1)(C3)C2` (centres unmarked) [30b] here?
**A.** < 1 µM

Target: T1, S31N mutant of the A/M2 protein (Influenza A virus, UniProt P0DOF5, S31N)
Format: biochemical
Conditions: not given

**Q.** With `CC1(O)C2CC3CC1CC(NCc1cc(-c4cccs4)on1)(C3)C2` (centres unmarked) [30c] as the compound, how does the “% S31N inhibition” value read?
**A.** 87/48%

**Q.** For `c1ccc(-c2nnc(CNC34CC5CC(CC(C5)C3)C4)o2)cc1` [26c], which “% S31N inhibition” value is on record?
**A.** 61/N.T. %

**Q.** Which “% S31N inhibition” value does the source give for `COc1ccc(-c2nc(CNC34CC5CC(CC(C5)C3)C4)no2)c(OC)c1` [compound 18m] here?
**A.** 82/N.T. %

**Q.** Which “% S31N inhibition” value does the source give for `Fc1cccc(F)c1-c1cc(CNC23CC4CC(CC(C4)C2)C3)no1` [14p] here?
**A.** 85/68%

**Q.** For `COc1ccc(-c2cc(CNC34CC5CC(CC(C5)C3)C4)no2)c(OC)c1` [compound 14t], which “% S31N inhibition” value is on record?
**A.** 62/N.T. %

**Q.** For `c1ccc(-c2nc(CNC34CC5CC(CC(C5)C3)C4)cs2)cc1` [26i], which “% S31N inhibition” value is on record?
**A.** 24/N.T. %

**Q.** For `Clc1ccccc1-c1cc(CNC23CC4CC(CC(C4)C2)C3)no1` [14m], which “% S31N inhibition” value is on record?
**A.** 87/65%

**Q.** For `c1cc(-c2nc(CNC34CC5CC(CC(C5)C3)C4)no2)cs1` [18g], which “% S31N inhibition” value is on record?
**A.** 81/N.T. %

**Q.** For `Brc1ccccc1-c1cc(CNC23CC4CC(CC(C4)C2)C3)no1` [14n], which “% S31N inhibition” value is on record?
**A.** 77/N.T. %

**Q.** For `c1coc(-c2cc(CNC34CC5CC(CC(C5)C3)C4)no2)c1` [14j], which “% S31N inhibition” value is on record?
**A.** 84/N.T. %

**Q.** With `c1csc(-c2cc(CNC34CC5CC(C3)C3(CO3)C(C5)C4)no2)c1` (centres unmarked) [30d] as the compound, how does the “% S31N inhibition” value read?
**A.** 61/N.T. %

**Q.** For `O=C1C2CC3CC1CC(NCc1cc(-c4cccs4)on1)(C3)C2` [30a], which “% S31N inhibition” value is on record?
**A.** 78/N.T. %

**Q.** With `CCCc1cc(CNC23CC4CC(CC(C4)C2)C3)no1` [14b] as the compound, how does the “% S31N inhibition” value read?
**A.** 81/49%

**Q.** With `c1csc(-c2nc(CNC34CC5CC(CC(C5)C3)C4)cs2)c1` [26h] as the compound, how does the “% S31N inhibition” value read?
**A.** 37/N.T. %

**Q.** For `COc1cccc(-c2cc(CNC34CC5CC(CC(C5)C3)C4)no2)c1` [14r], which “% S31N inhibition” value is on record?
**A.** 87/73%

**Q.** With `c1c(CNC23CC4CC(CC(C4)C2)C3)noc1C1CCC1` [14d] as the compound, how does the “% S31N inhibition” value read?
**A.** 84/N.T. %

**Q.** Which “% S31N inhibition” value does the source give for `CSC(C)(C)Cc1cc(CNC23CC4CC(CC(C4)C2)C3)no1` [14g] here?
**A.** 70/N.T. %

**Q.** For `COc1ccccc1-c1noc(CNC23CC4CC(CC(C4)C2)C3)n1` [20b], which “% S31N inhibition” value is on record?
**A.** 58/N.T. %

**Q.** Which “% S31N inhibition” value does the source give for `CSc1ccccc1-c1cc(CNC23CC4CC(CC(C4)C2)C3)no1` [14s] here?
**A.** 79/N.T. %

**Q.** With `c1csc(-c2cc(CNC34CC5COC(CC(C5)C3)C4)no2)c1` (centres unmarked) [30e] as the compound, how does the “% S31N inhibition” value read?
**A.** 72/N.T. %

**Q.** For `c1c(C2CCCCC2)noc1CNC12CC3CC(CC(C3)C1)C2` [20c], which “% S31N inhibition” value is on record?
**A.** 67/N.T. %

**Q.** For `CC(C)Cc1nc(CNC23CC4CC(CC(C4)C2)C3)no1` [18e], which “% S31N inhibition” value is on record?
**A.** 62/N.T. %

**Q.** For `CCCc1nc(CNC23CC4CC(CC(C4)C2)C3)no1` [18b], which “% S31N inhibition” value is on record?
**A.** 77/19%

**Q.** With `c1csc(-c2ncc(CNC34CC5CC(CC(C5)C3)C4)s2)c1` [26e] as the compound, how does the “% S31N inhibition” value read?
**A.** 75/N.T. %

**Q.** Which “% S31N inhibition” value does the source give for `Oc1ccc(NC23CC4CC(CC(C4)C2)C3)c(O)c1` [compound 5] here?
**A.** 67%

**Q.** With `COc1ccsc1-c1cc(CNC23CC4CC(CC(C4)C2)C3)no1` [14k] as the compound, how does the “% S31N inhibition” value read?
**A.** 90/87%

**Q.** Which “% S31N inhibition” value does the source give for `c1cc(-c2cc(CNC34CC5CC(CC(C5)C3)C4)no2)cs1` [14i] here?
**A.** 90/N.T. %

**Q.** For `c1csc(-c2nnc(CNC34CC5CC(CC(C5)C3)C4)s2)c1` [26b], which “% S31N inhibition” value is on record?
**A.** 83/N.T. %

**Q.** Which “% S31N inhibition” value does the source give for `NC12CC3CC(CC(C3)C1)C2` [AMT (1), amantadine, reference compound] here?
**A.** 36%

**Q.** Which “% S31N inhibition” value does the source give for `Fc1cc(F)cc(-c2cc(CNC34CC5CC(CC(C5)C3)C4)no2)c1` [14o] here?
**A.** 78/N.T. %

**Q.** With `CC(C)c1cc(CNC23CC4CC(CC(C4)C2)C3)no1` [14f] as the compound, how does the “% S31N inhibition” value read?
**A.** 80/55%

**Q.** With `OC1C2CC3CC1CC(NCc1cc(-c4cccs4)on1)(C3)C2` (centres unmarked) [30b] as the compound, how does the “% S31N inhibition” value read?
**A.** 91/56%

**Q.** For `c1coc(-c2nc(CNC34CC5CC(CC(C5)C3)C4)no2)c1` [18h], which “% S31N inhibition” value is on record?
**A.** 73/N.T. %

**Q.** For `COc1ccc(-c2nnc(CNC34CC5CC(CC(C5)C3)C4)o2)cc1` [26d], which “% S31N inhibition” value is on record?
**A.** 58/N.T. %

**Q.** For `COc1ccc(-c2noc(CNC34CC5CC(CC(C5)C3)C4)n2)cc1OC` [20a], which “% S31N inhibition” value is on record?
**A.** 39/N.T. %

**Q.** Which “% S31N inhibition” value does the source give for `OC12CC3CC(O)(C1)CC(NCc1cc(-c4cccs4)on1)(C3)C2` [compound 30h] here?
**A.** 88/45%

**Q.** For `c1csc(-c2nnc(CNC34CC5CC(CC(C5)C3)C4)o2)c1` [26a], which “% S31N inhibition” value is on record?
**A.** 52/N.T. %

**Q.** Which “% S31N inhibition” value does the source give for `COCc1cc(CNC23CC4CC(CC(C4)C2)C3)no1` [14e] here?
**A.** 39/N.T. %

Target: T1, S31N mutant of the A/M2 protein
Conditions: 100 µM drug; percent inhibition in TEVC assays was previously reported; cited from earlier work

**Q.** With `c1csc(-c2nc(CNC34CC5CC(CC(C5)C3)C4)no2)c1` [18f] as the compound, how does the “% S31N inhibition” value read?
**A.** 83/N.T. %

**Q.** For `c1ccc(-c2cc(CNC34CC5CC(CC(C5)C3)C4)no2)cc1` [14l], which “% S31N inhibition” value is on record?
**A.** 91/N.T. %

**Q.** With `c1ccc(-c2nc(CNC34CC5CC(CC(C5)C3)C4)no2)cc1` [18i] as the compound, how does the “% S31N inhibition” value read?
**A.** 75/N.T. %

**Q.** With `CC(C)c1nc(CNC23CC4CC(CC(C4)C2)C3)no1` [18d] as the compound, how does the “% S31N inhibition” value read?
**A.** 70/N.T. %

**Q.** With `Cc1cc(CNC23CC4CC(CC(C4)C2)C3)no1` [14a] as the compound, how does the “% S31N inhibition” value read?
**A.** 49/N.T. %

**Q.** With `COc1ccc(-c2nc(CNC34CC5CC(CC(C5)C3)C4)no2)cc1` [18k] as the compound, how does the “% S31N inhibition” value read?
**A.** 86/N.T. %

**Q.** With `Cc1nc(CNC23CC4CC(CC(C4)C2)C3)no1` [18a] as the compound, how does the “% S31N inhibition” value read?
**A.** 60/N.T. %

**Q.** Which “% S31N inhibition” value does the source give for `COc1ccc(-c2cc(CNC34CC5CC(CC(C5)C3)C4)no2)cc1` [14q] here?
**A.** 87/N.T. %
